Source: ChEMBL document CHEMBL1909046, “DrugMatrix in vitro pharmacology data”

Experiments:
Thromboxane-A synthase = molecular target: T1, Thromboxane-A synthase (Homo sapiens, UniProt P24557); test: biochemical; type: tissue-based, Platelet; conditions: platelet;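 also: enzyme inhibition assay with PGH2 supplied as substrate; in other assays of this panel Not Active means under 50% inhibition at 10 µM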
T1 sequence (P24557 whole entry): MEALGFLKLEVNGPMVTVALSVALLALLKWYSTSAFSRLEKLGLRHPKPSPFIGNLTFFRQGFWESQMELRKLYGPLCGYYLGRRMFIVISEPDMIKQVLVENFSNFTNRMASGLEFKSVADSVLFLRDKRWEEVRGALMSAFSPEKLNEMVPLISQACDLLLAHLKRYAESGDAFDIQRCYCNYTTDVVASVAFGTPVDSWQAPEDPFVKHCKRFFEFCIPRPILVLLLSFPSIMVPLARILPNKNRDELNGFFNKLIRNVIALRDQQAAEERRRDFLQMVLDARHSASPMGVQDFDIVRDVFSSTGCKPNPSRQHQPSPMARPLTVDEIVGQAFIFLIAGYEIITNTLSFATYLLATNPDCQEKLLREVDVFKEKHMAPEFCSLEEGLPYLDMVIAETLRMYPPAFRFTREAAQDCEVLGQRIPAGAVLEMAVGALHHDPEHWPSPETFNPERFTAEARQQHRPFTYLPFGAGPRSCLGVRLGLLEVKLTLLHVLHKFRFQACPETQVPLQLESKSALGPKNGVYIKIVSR

[1] = DRUGMATRIX: Platelet-Derived Growth Factor (PDGF) radioligand binding (ligand: [125I] PDGF); type: cell-based; conditions: nih3t3; Not Active = under 50% inhibition at 10 µM
[2] = molecular target: Sodium-dependent dopamine transporter (Homo sapiens, UniProt Q01959); test: DRUGMATRIX: Dopamine Transporter radioligand binding (ligand: [125I] RTI-55); type: cell membranes, CHO-K1, Membrane; conditions: cho-k1; Not Active = under 50% inhibition at 10 µM
Chain of Sodium-dependent dopamine transporter (Q01959 whole entry): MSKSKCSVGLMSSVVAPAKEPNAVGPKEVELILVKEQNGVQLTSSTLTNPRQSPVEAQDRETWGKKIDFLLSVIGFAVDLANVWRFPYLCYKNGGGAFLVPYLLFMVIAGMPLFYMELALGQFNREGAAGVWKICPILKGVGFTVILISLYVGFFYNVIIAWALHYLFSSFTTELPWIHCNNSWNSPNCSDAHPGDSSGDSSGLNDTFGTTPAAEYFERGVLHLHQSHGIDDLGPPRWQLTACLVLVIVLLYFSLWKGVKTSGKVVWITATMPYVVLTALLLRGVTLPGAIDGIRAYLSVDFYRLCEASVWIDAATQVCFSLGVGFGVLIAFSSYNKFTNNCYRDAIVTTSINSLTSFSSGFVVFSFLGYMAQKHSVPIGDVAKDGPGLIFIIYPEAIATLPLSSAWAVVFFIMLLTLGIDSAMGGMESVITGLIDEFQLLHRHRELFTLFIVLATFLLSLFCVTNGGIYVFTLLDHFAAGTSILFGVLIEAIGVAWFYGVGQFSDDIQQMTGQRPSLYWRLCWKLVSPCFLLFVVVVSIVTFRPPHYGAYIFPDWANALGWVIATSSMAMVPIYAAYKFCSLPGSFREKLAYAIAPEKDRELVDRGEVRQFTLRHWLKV

[3] = molecular target: Vascular endothelial growth factor receptor 1 (Homo sapiens, UniProt P17948); type: cell-based; conditions: huvec; also: in other assays of this panel Not Active means under 50% inhibition at 10 µM
Chain of Vascular endothelial growth factor receptor 1 (P17948 whole entry): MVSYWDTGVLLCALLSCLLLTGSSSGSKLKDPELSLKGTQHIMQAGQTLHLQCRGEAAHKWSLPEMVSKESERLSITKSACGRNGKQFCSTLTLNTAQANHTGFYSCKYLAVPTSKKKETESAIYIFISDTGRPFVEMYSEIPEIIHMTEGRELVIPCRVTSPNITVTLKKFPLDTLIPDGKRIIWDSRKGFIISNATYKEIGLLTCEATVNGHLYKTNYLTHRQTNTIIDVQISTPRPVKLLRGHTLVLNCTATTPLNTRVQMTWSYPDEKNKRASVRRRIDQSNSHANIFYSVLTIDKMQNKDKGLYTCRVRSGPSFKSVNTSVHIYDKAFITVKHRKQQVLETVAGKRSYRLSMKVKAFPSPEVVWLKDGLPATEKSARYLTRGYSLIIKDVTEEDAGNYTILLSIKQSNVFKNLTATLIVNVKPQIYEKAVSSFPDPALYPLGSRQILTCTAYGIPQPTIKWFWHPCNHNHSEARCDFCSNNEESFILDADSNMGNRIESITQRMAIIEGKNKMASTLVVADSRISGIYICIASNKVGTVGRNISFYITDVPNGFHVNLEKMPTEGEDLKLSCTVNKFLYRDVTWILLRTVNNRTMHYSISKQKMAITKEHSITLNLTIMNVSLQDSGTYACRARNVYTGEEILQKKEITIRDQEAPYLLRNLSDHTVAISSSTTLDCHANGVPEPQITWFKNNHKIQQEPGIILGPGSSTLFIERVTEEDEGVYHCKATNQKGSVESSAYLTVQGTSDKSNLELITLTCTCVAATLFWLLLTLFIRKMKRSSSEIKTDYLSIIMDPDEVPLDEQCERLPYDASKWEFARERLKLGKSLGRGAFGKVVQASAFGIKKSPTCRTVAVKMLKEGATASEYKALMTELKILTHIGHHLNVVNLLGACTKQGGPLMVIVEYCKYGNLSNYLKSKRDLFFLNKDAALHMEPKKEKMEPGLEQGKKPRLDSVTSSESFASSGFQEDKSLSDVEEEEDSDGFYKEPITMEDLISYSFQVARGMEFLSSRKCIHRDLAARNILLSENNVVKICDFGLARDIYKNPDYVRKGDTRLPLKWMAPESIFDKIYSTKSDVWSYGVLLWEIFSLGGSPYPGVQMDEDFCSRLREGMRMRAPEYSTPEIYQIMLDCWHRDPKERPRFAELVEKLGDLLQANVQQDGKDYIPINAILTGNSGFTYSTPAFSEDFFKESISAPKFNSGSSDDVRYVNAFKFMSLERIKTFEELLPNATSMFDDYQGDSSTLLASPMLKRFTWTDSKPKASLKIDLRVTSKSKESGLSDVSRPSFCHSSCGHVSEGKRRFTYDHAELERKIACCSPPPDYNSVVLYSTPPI

Melanocortin receptor 3 = Melanocortin receptor 3 (Homo sapiens, UniProt P41968); type: cell membranes, Membrane; conditions: hek293; also: in other assays of this panel Not Active means under 50% inhibition at 10 µM
Chain of Melanocortin receptor 3 (P41968 whole entry): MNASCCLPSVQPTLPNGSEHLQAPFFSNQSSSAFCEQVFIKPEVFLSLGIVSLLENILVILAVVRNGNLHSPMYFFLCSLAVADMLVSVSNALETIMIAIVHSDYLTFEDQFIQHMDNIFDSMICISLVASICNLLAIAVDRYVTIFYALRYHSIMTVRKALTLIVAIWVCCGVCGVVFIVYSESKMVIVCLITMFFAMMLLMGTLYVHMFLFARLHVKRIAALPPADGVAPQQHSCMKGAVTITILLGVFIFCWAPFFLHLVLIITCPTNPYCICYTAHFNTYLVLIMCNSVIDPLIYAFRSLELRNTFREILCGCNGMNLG

[4] = molecular target: Epidermal growth factor receptor (Homo sapiens, UniProt P00533); test: DRUGMATRIX: Protein Tyrosine Kinase, EGF Receptor enzyme inhibition (substrate: Poly(Glu:Tyr)); type: cell-based, Insect cells; conditions: insect cells, Not Active = under 50% inhibition at 10 µM

| Compound | IC50 (Thromboxane-A synthase) | IC50 [1] | Ki [1] | IC50 [2] | IC50 [3] | IC50 (Melanocortin receptor 3) | IC50 [4] | Ki (Thromboxane-A synthase) | Ki [2] | Ki [3] | IC50 (Melanocortin receptor 3; read-out: IC50) [nM] | Ki (Melanocortin receptor 3; read-out: Ki) [nM] | IC50 ([4]; read-out: IC50) [nM] | Ki (Melanocortin receptor 3) | Ki [4] |
| --- | --- | --- | --- | --- | --- | --- | --- | --- | --- | --- | --- | --- | --- | --- | --- |
| NS(=O)(=O)c1cc(C2(O)NC(=O)c3ccccc32)ccc1Cl (configuration not stated) [CHLORTHALIDONE] | Not Active | Not Active | Not Active | Not Active | Not Active | Not Active | Not Active | – | – | – | – | – | – | – | – |
| CC(=O)OCC(=O)[C@@]1(O)CC[C@H]2[C@@H]3CCC4=CC(=O)CC[C@]4(C)[C@@]3(F)[C@@H](O)C[C@@]21C [FLUDROCORTISONE ACETATE] | Not Active | Not Active | Not Active | Not Active | Not Active | Not Active | Not Active | – | – | – | – | – | – | – | – |
| COLISTIN | Not Active | Not Active | Not Active | Not Active | Not Active | – | – | Not Active | Not Active | Not Active | 193 | 168 | 1500 | – | – |
| CN1C[C@@H]2C[C@H]1CN2c1cc2c(cc1F)c(=O)c(C(=O)O)cn2C1CC1 [DANOFLOXACIN] | Not Active | Not Active | Not Active | Not Active | Not Active | Not Active | Not Active | – | – | – | – | – | – | – | – |
| C[C@]12C=CC(=O)C=C1CC[C@H]1[C@@H]3C[C@@H](O)[C@](O)(C(=O)CO)[C@@]3(C)C[C@H](O)[C@@]12F [TRIAMCINOLONE] | Not Active | Not Active | Not Active | Not Active | Not Active | Not Active | Not Active | – | – | – | – | – | – | – | – |
| CN1CCN(c2c(F)cc3c(=O)c(C(=O)O)cn(CCF)c3c2F)CC1 [FLEROXACIN] | Not Active | Not Active | Not Active | Not Active | Not Active | Not Active | Not Active | – | – | – | – | – | – | – | – |
| CC(C)(C(=O)O)c1ccc(C(O)CCCN2CCC(C(O)(c3ccccc3)c3ccccc3)CC2)cc1 (configuration not stated) [FEXOFENADINE] | Not Active | Not Active | Not Active | Not Active | Not Active | Not Active | Not Active | – | – | – | – | – | – | – | – |
| CC(O)(P(=O)(O)O)P(=O)(O)O [ETIDRONIC ACID] | Not Active | Not Active | Not Active | Not Active | Not Active | Not Active | Not Active | – | – | – | – | – | – | – | – |
| CCOC(=O)c1ncn2c1CN(C)C(=O)c1cc(F)ccc1-2 [FLUMAZENIL] | Not Active | Not Active | Not Active | Not Active | Not Active | Not Active | Not Active | – | – | – | – | – | – | – | – |
| NNCCc1ccccc1 [PHENELZINE] | Not Active | Not Active | Not Active | Not Active | Not Active | Not Active | Not Active | – | – | – | – | – | – | – | – |
| COc1ccc2c(c1OC)C(=O)O[C@@H]2[C@H]1c2c(cc3c(c2OC)OCO3)CCN1C [NOSCAPINE] | Not Active | Not Active | Not Active | Not Active | Not Active | Not Active | Not Active | – | – | – | – | – | – | – | – |
| COBALTOUS CHLORIDE | Not Active | Not Active | Not Active | Not Active | Not Active | Not Active | Not Active | Not Active | Not Active | Not Active | – | – | – | Not Active | Not Active |
| CC(=O)Oc1ccccc1C(=O)O [ASPIRIN] | Not Active | Not Active | Not Active | Not Active | Not Active | Not Active | Not Active | – | – | – | – | – | – | – | – |
| CCN(CC)CCNC(=O)c1ccc(N)cc1 [PROCAINAMIDE] | Not Active | Not Active | Not Active | Not Active | Not Active | Not Active | Not Active | – | – | – | – | – | – | – | – |
